This is an account of results in paper PMC6685951, “Migration of Bacteriocins Across Gastrointestinal Epithelial and Vascular Endothelial Cells, as Determined Using In Vitro Simulations” (Scientific Reports, 2019).

Bridges are numbered along the chain shown (N, C = ends). Where no end group is shown, it is not given here. A value given as a limit tells only on which side of the number the result lay.

For series [1] the following is noted: in vivo, po; cited from earlier work.
Series [2] has as its system L. monocytogenes EGDe. It counts as cell-based, Listeria monocytogenes. The settings on record: EGDe, 18 h. On the procedure:
The BCA assay was used according to the manufactures instructions to determine the concentration of the peptides. The MIC of the peptides was determined using a microtiter plate. Briefly, L. monocytogenes EGDe was inoculated into Listeria enrichment broth (LEB) and incubated overnight at 37 °C. The culture was inoculated into fresh LEB and incubated until an OD600 of 0.1 was reached. A series of peptide concentrations was prepared and 50 µL of each added per well, followed by the addition of 150 µL culture. The controls were ddH2O containing 0.1% (v/v) TFA with 150 µL culture or media. Microtiter plates were incubated at 37 °C and OD600 readings were taken at T0, T5 and T18 (hours). The MIC was determined as the lowest peptide concentration required to inhibit the growth of L. monocytogenes EGDe after 18 h.

The subject of series [3] is L. monocytogenes EGDe. Briefly: Antimicrobial activity of NHS-fluorescein labelled versus unlabelled peptides (zone sizes). Format: cell-based, Listeria monocytogenes. The settings on record: 50 µM, 20 µL spotted on LEB agar seeded with L. monocytogenes EGDe, overnight 37 °C. On the procedure: HPLC purified stock solutions of nisin A, plantaricin 423 and bacST4SA were prepared by dissolving the peptides in sterile ultrapure water. Immediately before conjugating NHS-fluorescein to the peptides, a stock solution of NHS-fluorescein was prepared by dissolving 1 mg of reagent in 100 µL DMF. The amount of NHS-fluorescein to be added to each peptide was calculated using the Eqs (2) and (3):2 mLpeptide×mgpeptide/mLpeptide×mmolpeptide/mgpeptide×15mmolNHS/mmolpeptide=mmolNHS 3 mmolNHS×473.4(MWofNHS)/mmolNHS×100µLDMF/1mg=µLNHS
The calculated concentration of NHS-fluorescein was added to the peptides and incubated on ice for 2 h. Non-reacted NHS-fluorescein was removed by Sep-Pak C18 column chromatography. Plantaricin 423 and bacST4SA were eluted with 60% acetonitrile containing 0.1% TFA and nisin A with 40% acetonitrile containing 0.1% TFA. Peptides were freeze dried and resuspended in sterile ultrapure water. Concentrations of the labelled peptides were determined with the BCA assay and diluted to 50 µM. Labelled peptides were filtered through a 0.45 µm HVLP membrane and spotted (20 µL) onto LEB agar seeded with 1% L. monocytogenes EGDe (OD600 0.1). Plates were incubated overnight at 37 °C and the fluorescent peptides visualised under a UVP 3UV Ultraviolet Lamp. Inhibition zones were measured using ImageJ software and compared to those of non-labelled peptides.

Take `CC1(C)S[C@@H]2[C@H](NC(=O)COc3ccccc3)C(=O)N2[C@H]1C(=O)O` [penicillin V]: the bioavailability in series [1] is 60-70%.
Consider `O=C(N[C@H](CO)[C@H](O)c1ccc([N+](=O)[O-])cc1)C(Cl)Cl` [Chloramphenicol], for which the “time to peak blood levels” value in series [1] was ≤ 2 h.
As to “KYYGNGVSCNKKGCSVDWGKAIGIIGNNSAANLATGGAAGWKS (disulfide 9-14) [bacST4SA]”, in the series on L. monocytogenes EGDe [2], the MIC (as a rule, the smallest concentration in the dilution series that meets the test's criterion for growth inhibition) was found to be 10 µM. For the same compound, the “decrease in activity of labelled versus unlabelled peptide (antimicrobial zone sizes)” value in the series with L. monocytogenes EGDe [3] was 21%.
Regarding `CC1(C)S[C@@H]2[C@H](NC(=O)[C@H](N)c3ccc(O)cc3)C(=O)N2[C@H]1C(=O)O` [Amoxicillin], the bioavailability in series [1] is on record as 74-92%.
